# Target: Josephin-1 (Homo sapiens, UniProt Q15040)
# Source text: Human JOSD1 protein was purified according to standard protocols.
smiles,measurement,value
"N#CN1CC[C@@H](C(=O)Nc2nc3ccc(-c4ccc5[nH]ncc5c4)cc3s2)C1 [US20240335427, Compound 7]",IC50,0.095 µM

# Source: BindingDB's records for patent US20240335427 (Dana-Farber Cancer Institute, 2024)
